Data: ChEMBL document CHEMBL1649448, “Atorvastatin is a promising partner for antimalarial drugs in treatment of Plasmodium falciparum malaria” (Antimicrob Agents Chemother, 2009)

How the values were obtained:
Format in all cases: functional, organism-based
[1] = tested on: Plasmodium falciparum; assay: Antimalarial activity against Plasmodium falciparum IMT 10336 assessed as incorporation of [3H]hypoxanthine after 48 hrs by scintillation counter
[2] = tested on: Plasmodium falciparum; assay: Antimalarial activity against Plasmodium falciparum IMT K2 assessed as incorporation of [3H]hypoxanthine after 48 hrs by scintillation counter
[3] = tested on: Plasmodium falciparum; assay: Antimalarial activity against Plasmodium falciparum D6 assessed as incorporation of [3H]hypoxanthine after 48 hrs by scintillation counter
[4] = tested on: Plasmodium falciparum; assay: Antimalarial activity against Plasmodium falciparum IMT 8425 assessed as incorporation of [3H]hypoxanthine after 48 hrs by scintillation counter
[5] = tested on: Plasmodium falciparum; assay: Antimalarial activity against Plasmodium falciparum HB3 assessed as incorporation of [3H]hypoxanthine after 48 hrs by scintillation counter
[6] = tested on: Plasmodium falciparum; assay: Antimalarial activity against Plasmodium falciparum IMT 10500 assessed as incorporation of [3H]hypoxanthine after 48 hrs by scintillation counter
[7] = tested on: Plasmodium falciparum; assay: Antimalarial activity against Plasmodium falciparum FCR3 assessed as incorporation of [3H]hypoxanthine after 48 hrs by scintillation counter
[8] = tested on: Plasmodium falciparum; assay: Antimalarial activity against Plasmodium falciparum FCM29 assessed as incorporation of [3H]hypoxanthine after 48 hrs by scintillation counter
[9] = tested on: Plasmodium falciparum; assay: Antimalarial activity against Plasmodium falciparum IMT Bres assessed as incorporation of [3H]hypoxanthine after 48 hrs by scintillation counter
[10] = tested on: Plasmodium falciparum; assay: Antimalarial activity against Plasmodium falciparum W2 assessed as incorporation of [3H]hypoxanthine after 48 hrs by scintillation counter
[11] = tested on: Plasmodium falciparum; assay: Antimalarial activity against Plasmodium falciparum IMT A4 assessed as incorporation of [3H]hypoxanthine after 48 hrs by scintillation counter
[12] = tested on: Plasmodium falciparum; assay: Antimalarial activity against Plasmodium falciparum IMT Vol assessed as incorporation of [3H]hypoxanthine after 48 hrs by scintillation counter
[13] = tested on: Plasmodium falciparum; assay: Antimalarial activity against Plasmodium falciparum IMT 16332 assessed as incorporation of [3H]hypoxanthine after 48 hrs by scintillation counter
[14] = tested on: Plasmodium falciparum; assay: Antimalarial activity against Plasmodium falciparum 3D7 assessed as incorporation of [3H]hypoxanthine after 48 hrs by scintillation counter
[15] = tested on: Plasmodium falciparum; assay: Antimalarial activity against Plasmodium falciparum IMT 9881 assessed as incorporation of [3H]hypoxanthine after 48 hrs by scintillation counter
[16] = tested on: Plasmodium falciparum; assay: Antimalarial activity against Plasmodium falciparum IMT K4 assessed as incorporation of [3H]hypoxanthine after 48 hrs by scintillation counter
[17] = tested on: Plasmodium falciparum; assay: Antimalarial activity against Plasmodium falciparum IMT 31 assessed as incorporation of [3H]hypoxanthine after 48 hrs by scintillation counter
[18] = tested on: Plasmodium falciparum; assay: Antimalarial activity against Plasmodium falciparum 106/1 assessed as incorporation of [3H]hypoxanthine after 48 hrs by scintillation counter
[19] = tested on: Plasmodium falciparum; assay: Antimalarial activity against Plasmodium falciparum IMT Guy assessed as incorporation of [3H]hypoxanthine after 48 hrs by scintillation counter
[20] = tested on: Plasmodium falciparum; assay: Antimalarial activity against Plasmodium falciparum IMT K14 assessed as incorporation of [3H]hypoxanthine after 48 hrs by scintillation counter
[21] = tested on: Plasmodium falciparum; assay: Antimalarial activity against Plasmodium falciparum PA assessed as incorporation of [3H]hypoxanthine after 48 hrs by scintillation counter
[22] = tested on: Plasmodium falciparum; assay: Antimalarial activity against Plasmodium falciparum IMT L1 assessed as incorporation of [3H]hypoxanthine after 48 hrs by scintillation counter

| Structure (SMILES) | IC50 [1] | IC50 [2] | IC50 [3] | IC50 [4] | IC50 [5] | IC50 [6] | IC50 [7] | IC50 [8] | IC50 [9] | IC50 [10] | IC50 [11] | IC50 [12] | IC50 [13] | IC50 [14] | IC50 [15] | IC50 [16] | IC50 [17] | IC50 [18] | IC50 [19] | IC50 [20] | other results |
| --- | --- | --- | --- | --- | --- | --- | --- | --- | --- | --- | --- | --- | --- | --- | --- | --- | --- | --- | --- | --- | --- |
| OC(c1cc(C(F)(F)F)nc2c(C(F)(F)F)cccc12)C1CCCCN1 (centres undefined) [MEFLOQUINE] | 14 nM | 14 nM | 14 nM | 14 nM | 14 nM | 14 nM | 14 nM | 14 nM | 14 nM | 14 nM | 14 nM | 14 nM | 14 nM | 14 nM | 14 nM | 14 nM | 14 nM | 14 nM | 14 nM | 14 nM | IC50 [21]: 14 nM; IC50 [22]: 14 nM |
| CCCCN(CCCC)CC(O)c1cc(Cl)cc2c1-c1ccc(Cl)cc1/C2=C/c1ccc(Cl)cc1 (centres undefined) [LUMEFANTRINE] | 8 nM | 8 nM | 8 nM | 8 nM | 8 nM | 8 nM | 8 nM | 8 nM | 8 nM | 8 nM | 8 nM | 8 nM | 8 nM | 8 nM | 8 nM | 8 nM | 8 nM | 8 nM | 8 nM | 8 nM | IC50 [21]: 8 nM; IC50 [22]: 8 nM |
